Results published in patent US20080249006A1, “Pharmaceutical Preparation for the Treatment of Shock” (FIBREX MEDICAL RESEARCH & DEVELOPMENT GESMBH, priority 2004, published 2008).

Experiments:
[1] = biological target: T1, recombinant human VE-cadherin FC fusion protein (Homo sapiens, UniProt P33151); test: ELISA: binding of FLAG-tagged peptide to coated VE-cadherin
T1 construct: Fc (immunoglobulin Fc fusion partner); purchased R&D Systems, Minneapolis
Source text: (§1) We have developed a modified ELISA working with the same principles described by others, but the purpose of the herein described ELISA is not to quantify fibrin degradation products, but to search for proteins, peptides or compounds which interfere with the binding of the Bbeta15-42 sequence and the VE-cadherin. […] Into this system one can introduce any other additional substance and measure if this substance inhibits VE-cadherin/Bbeta15-42 binding.
(§2) In detail, 96 well protein immobilizer plates (Exiqon, Vedbaek, D K) were coated with recombinant human VE-cadherin FC fusion protein (8 nM/ml; R&D Systems, Minneapolis) in PBS and were left overnight at 4° C. Plates were then washed and incubated with peptide Bβ15-42 ([…]) tagged with a FLAG-sequence (DYKDDDDK) at the C-terminus of the peptide or with a FLAG-tagged random peptide ([…]) at a concentration of 0-80 μMol. After washing, bound FLAG-tagged peptide was detected by incubation with a peroxidase-labelled anti-FLAG antibody (Sigma, St. Louis, USA) and chromogenic substrate. Optical density was determined by an ELISA plate reader set at a wavelength of 450 nm. Data represent the mean of three independent experiments, each performed in triplicates.

VE-cadherin = biological target: T2, VE-cadherin (Homo sapiens, UniProt P33151); test: Competition ELISA: inhibition of FLAG-tagged Bbeta15-42 binding to VE-cadherin; conditions: for % inhibition of 15-42FLAG-binding to VE-cadherin mean ± SD: FLAG-tagged Bbeta15-42 12 μM
T2 construct: Fc (immunoglobulin Fc fusion partner); purchased R&D Systems, Minneapolis
T2 sequence (P33151 with tags, fused parts or gaps limits assumed): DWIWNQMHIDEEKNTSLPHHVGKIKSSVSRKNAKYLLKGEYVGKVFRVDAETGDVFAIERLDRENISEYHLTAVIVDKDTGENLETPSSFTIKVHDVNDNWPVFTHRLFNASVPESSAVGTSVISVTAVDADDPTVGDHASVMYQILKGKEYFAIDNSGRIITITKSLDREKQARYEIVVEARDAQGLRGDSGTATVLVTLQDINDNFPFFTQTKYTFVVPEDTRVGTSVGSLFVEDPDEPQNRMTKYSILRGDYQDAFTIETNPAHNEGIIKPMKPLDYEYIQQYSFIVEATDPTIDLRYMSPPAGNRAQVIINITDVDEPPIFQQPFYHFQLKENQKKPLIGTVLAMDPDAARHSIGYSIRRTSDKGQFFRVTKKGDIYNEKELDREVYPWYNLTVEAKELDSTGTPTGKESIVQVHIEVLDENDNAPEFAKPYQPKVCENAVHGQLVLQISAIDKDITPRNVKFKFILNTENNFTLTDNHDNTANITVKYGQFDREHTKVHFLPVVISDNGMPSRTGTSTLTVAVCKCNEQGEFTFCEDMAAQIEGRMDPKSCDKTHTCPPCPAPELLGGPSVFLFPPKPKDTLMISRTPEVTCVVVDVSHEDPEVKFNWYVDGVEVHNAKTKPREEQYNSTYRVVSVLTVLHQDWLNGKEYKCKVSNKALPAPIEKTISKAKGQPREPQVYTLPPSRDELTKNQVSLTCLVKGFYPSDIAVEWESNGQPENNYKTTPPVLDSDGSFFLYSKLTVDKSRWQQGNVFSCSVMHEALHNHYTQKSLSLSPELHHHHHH
Source text: as §1, §2
In a next step, we analyzed whether this ELISA can be used to screen for other peptides/compounds to compete with the binding of the Bβ15-42 sequence to VE-cadherin.
VE-cadherin was coated to the plastic surface at a concentration of 8 nM. Then indicated peptides were added at concentrations of 200 μM, NDSK or NDSK-II were added at indicated concentrations. Detection of binding of the FLAG-tagged Bbeta15-42 (12 μM) was performed as described above.

[2] = tested on: Dengue virus type 2 (DEN-2), strain P23085; test: Treatment of dengue virus infected mice; assay type: in vivo, BALB/c mice; conditions: for IL-1 / IL-6 / TNF: serum
[3] = tested on: Gram-negative shock, Lipopolysaccharide from E. coli, serotype 0.127:B8; test: Gram-negative shock (LPS-induced multiple organ failure) in rats; assay type: in vivo, Wistar rats; parameters: Glucose / Amylase / ALT / AST / Creatinine / Urea / heart rate (mean): unit not given here; conditions: for mean number of fibrin thrombi within vessels: end of the experiment, acidic fuchsin-orange G stain
Method: Male Wistar rats weighing 230-280 g were housed in the Tierversuchsanlage (University of Düisseldorf) and fed on a standard diet with water ad libitum. All procedures were carried out in accordance with the AAALAC guidelines and Guide for the Care and Use of Laboratory Animals (Department of Health and Human Services, National Institutes of Health, Publication No. 86-23). In addition, all experiments have been approved by an ethical and research board of the University of Düisseldorf and the county. As previously described (Zacharowski et al. Crit. Care Med 2000, Zacharowski et al. Crit. Care Med 2001; 29:1599-1608), rats were anaesthetized with sodium thiopentone (120 mg/kg i.p.) and anesthesia was maintained with supplementary doses of sodium thiopentone as required.
The trachea was cannulated to facilitate respiration and rectal temperature was maintained at 37° C. with a homoeothermic blanket. […] The right jugular vein was cannulated for the administration of drugs. The bladder was also cannulated to facilitate urine flow and to prevent the possibility of the development of post-renal failure. All animals received a total fluid replacement of 1.0 ml/kg/h (0.9% sodium chloride, saline, as an i.v. infusion into the jugular vein) throughout the experiment. Upon completion of the surgical procedure, cardiovascular parameters were allowed to stabilize for 15 min and constantly recorded over 6 h. In this model of LPS-induced multiple organ failure, a period of 6 h is essential to achieve a significant rise in the serum levels of AST and ALT, while a significant rise in the serum levels of urea and creatinine can already be observed after 2 h.
Three groups were studied: Rats were subjected to sham operation: (sham). Rats were subjected to Gram-negative shock. Lipopolysaccharide from E. coli, serotype 0.127:B8 (6 mg/kg i.v.) was given over 5 min i.v., 1 h later, animals received saline (2.4 ml/kg): (LPS+saline). Rats were subjected to Gram-negative shock. Lipopolysaccharide from E. coli, serotype 0.127:B8 (6 mg/kg i.v.) was given over 5 min i.v., animals received Bβ15-42 (2.4 mg/kg): (LPS+Bβ15-42).
Six hours after the induction of Gram-negative shock, blood was collected from the catheter placed in the right carotid artery. The blood sample was centrifuged (1610×g for 3 min at room temperature) to separate plasma. The following marker enzymes were measured in the plasma as biochemical indicators of multiple organ injury/dysfunction:
Liver injury was assessed by measuring the rise in plasma levels of alanine aminotransferase (ALT, a specific marker for hepatic parenchymal injury) and aspartate aminotransferase (AST, a non-specific marker for hepatic injury).
Plasma levels of glucose and amylase were measured as indirect markers of pancreatic function and injury.
In addition, arterial pO2 was measured as indirect marker of lung function/injury. Laboratory values
Organ (lung, liver, heart and kidney) biopsies of all groups studied were taken at the end of the experiment. The biopsies were fixed in buffered formaldehyde solution (4% in phosphate buffered saline) at room temperature and sent to Vienna. […] In sham treated animals no fibrin thrombi were present.

endothelial surfaces = conditions: in vitro; cited from earlier work
endothelium = conditions: cited from earlier work
[4] = in vivo, ischemia/reperfusion; cited from earlier work
[5] = blocking reagent 200 μM, VE-cadherin 8 nM
[6] = DEN-2 1 LD50 i.p., 4800 μg/kg i.p. twice per day, day 3 to day 8 post infection, p < 0.05 between groups
[7] = plasma, 6 h after induction of Gram-negative shock, Bβ15-42 2.4 mg/kg

T1 sequence (P33151 with tags, fused parts or gaps limits assumed): as above

15-42 FLAG: peptide Bβ15-42 (GHRPLDKKREEAPSLRPAPPPISGGGYR) tagged with a FLAG-sequence (DYKDDDDK) at the C-terminus (GHRPLDKKREEAPSLRPAPPPISGGGYRDYKDDDDK)
Binding to VE-cadherin, optical density at 450 nm (mean) ([1]; FLAG-tagged peptide 0 μM): 0
Binding to VE-cadherin, optical density at 450 nm (mean) ([1]; FLAG-tagged peptide 0.23 μM): 0.01
Binding to VE-cadherin, optical density at 450 nm (mean) ([1]; FLAG-tagged peptide 0.7 μM): 0.02
Binding to VE-cadherin, optical density at 450 nm (mean) ([1]; FLAG-tagged peptide 2.3 μM): 0.08
Binding to VE-cadherin, optical density at 450 nm (mean) ([1]; FLAG-tagged peptide 7 μM): 0.33
Binding to VE-cadherin, optical density at 450 nm (mean) ([1]; FLAG-tagged peptide 14 μM): 0.92
Binding to VE-cadherin, optical density at 450 nm (mean) ([1]; FLAG-tagged peptide 21 μM): 1.3
Binding to VE-cadherin, optical density at 450 nm (mean) ([1]; FLAG-tagged peptide 35 μM): 1.5
Binding to VE-cadherin, optical density at 450 nm (mean) ([1]; FLAG-tagged peptide 46 μM): 1.93
Binding to VE-cadherin, optical density at 450 nm (mean) ([1]; FLAG-tagged peptide 70 μM): 2.1

GHRPLDKKREEAPSLRPAPPPISGGGYR [Bβ15-42, peptide matching amino acids 15-42 of the Bbeta chain of human fibrin]
Binding to VE-cadherin (in words) ([1]; FLAG-tagged peptide 0-80 μMol): bound to VE-cadherin in a concentration-dependent manner
Inhibition of binding of flag-tagged peptide Bβ15-42 to VE-cadherin (in words) (VE-cadherin): completely inhibited
% inhibition of 15-42FLAG-binding to VE-cadherin mean ± SD (VE-cadherin; [5]): 100 ± 10%
mean time to death ([2]; DEN-2 1 LD50 i.p., 4800 μg/kg i.p. twice per day, day 3 to day 8 post infection): All mice survived
Mortality (%) [2, 6]: 0%
Survival (%) [2, 6]: 100%
viremia ([2]; day 2): 1.2 ± 0.2 1 g PFU/ml
viremia ([2]; day 3^b): 2.2 ± 0.2 1 g PFU/ml
hematokrit ([2]; day 3 after challenge): 15%
viremia ([2]; day 4): 4.2 ± 0.2 1 g PFU/ml
viremia ([2]; day 5): 5.6 ± 0.4 1 g PFU/ml
hematokrit ([2]; day 5 after challenge): 33%
viremia ([2]; day 6): 6.0 ± 0.4 1 g PFU/ml
viremia ([2]; day 7): 5.9 ± 0.4 1 g PFU/ml
hematokrit ([2]; day 7 after challenge): 43%
viremia ([2]; day 28): 0 1 g PFU/ml
viremia ([2]; first line of the table, day number not given): 0 1 g PFU/ml
IL-1 ([2]; day 3 after challenge): 32 pg/mL
IL-6 ([2]; day 3 after challenge): 140 pg/mL
TNF ([2]; day 3 after challenge): 32 pg/mL
IL-1 ([2]; day 5 after challenge): 29 pg/mL
IL-6 ([2]; day 5 after challenge): 110 pg/mL
TNF ([2]; day 5 after challenge): 65 pg/mL
IL-1 ([2]; day 7 after challenge): 28 pg/mL
IL-6 ([2]; day 7 after challenge): 100 pg/mL
TNF ([2]; day 7 after challenge): 45 pg/mL
Survival ([3]; LPS 6 mg/kg i.v. plus Bβ15-42 2.4 mg/kg, n = 20 in each group, p < 0.05): 88%
heart rate (mean) ([3]; LPS + Bβ15-42, time 0 h): 436.9
mean arterial pressure (mean) ([3]; LPS + Bβ15-42, time 0 h): 128.9
heart rate (mean) ([3]; LPS + Bβ15-42, time 1 h): 484.8
mean arterial pressure (mean) ([3]; LPS + Bβ15-42, time 1 h): 83.7
heart rate (mean) ([3]; LPS + Bβ15-42, time 2 h): 484.1
mean arterial pressure (mean) ([3]; LPS + Bβ15-42, time 2 h): 102.3
heart rate (mean) ([3]; LPS + Bβ15-42, time 3 h): 509.8
mean arterial pressure (mean) ([3]; LPS + Bβ15-42, time 3 h): 103.2
heart rate (mean) ([3]; LPS + Bβ15-42, time 4 h): 516.7
mean arterial pressure (mean) ([3]; LPS + Bβ15-42, time 4 h): 101.2
heart rate (mean) ([3]; LPS + Bβ15-42, time 5 h): 533.7
mean arterial pressure (mean) ([3]; LPS + Bβ15-42, time 5 h): 97.1
heart rate (mean) ([3]; LPS + Bβ15-42, time 6 h): 541.6
mean arterial pressure (mean) ([3]; LPS + Bβ15-42, time 6 h): 107.7
Fibrin thrombi in sections stained for fibrin deposits, controls versus treated (in words) ([3]; acidic fuchsin-orange G, p<0.05): significantly elevated numbers of fibrin thrombi in controls receiving LPS alone as compared with animals treated with LPS plus Bβ15-42
pO2 ([3]; arterial, 6 h after induction of Gram-negative shock, Bβ15-42 2.4 mg/kg): 98.7
Standard H&E-stained organ sections (lung, liver, heart, kidney), comparison of groups ([3]; biopsies at the end of the experiment): no differences
mean number of fibrin thrombi within vessels ([3]; heart): 5 + 2
mean number of fibrin thrombi within vessels ([3]; kidney): 2 + 9
mean number of fibrin thrombi within vessels ([3]; liver): 78 + 37
mean number of fibrin thrombi within vessels ([3]; lung): 1 + 0
ALT [3, 7]: 261.9
AST [3, 7]: 529.0
Amylase [3, 7]: 1945.1
Creatinine [3, 7]: 0.6
Glucose [3, 7]: 45.8
Urea [3, 7]: 107.8
Binding of fibrin fragments to endothelial surfaces (in words) (endothelial surfaces): blocks binding of fibrin fragments to endothelial surfaces
Inflammation in vitro (in words) (endothelium): blocks inflammation in vitro
Myocardial infarct sizes (in words) [4]: reduces myocardial infarct sizes
Myocardial inflammation (in words) [4]: prevents myocardial inflammation

peptide 15-18 (4mer): shorter peptide, amino acids 15-18 of the fibrin Bβ chain
% inhibition of 15-42FLAG-binding to VE-cadherin mean ± SD (VE-cadherin; blocking reagent 12 μM): 7 ± 2%
% inhibition of 15-42FLAG-binding to VE-cadherin mean ± SD (VE-cadherin; [5]): 65 ± 12%

peptide 15-26 (12mer): shorter peptide, amino acids 15-26 of the fibrin Bβ chain
% inhibition of 15-42FLAG-binding to VE-cadherin mean ± SD (VE-cadherin; blocking reagent 12 μM): 6 ± 1%
% inhibition of 15-42FLAG-binding to VE-cadherin mean ± SD (VE-cadherin; [5]): 64 ± 10%

peptide 15-30 (16mer): shorter peptide, amino acids 15-30 of the fibrin Bβ chain
% inhibition of 15-42FLAG-binding to VE-cadherin mean ± SD (VE-cadherin; blocking reagent 12 μM): 6 ± 3%
% inhibition of 15-42FLAG-binding to VE-cadherin mean ± SD (VE-cadherin; [5]): 61 ± 13%

peptide 15-34 (20mer): shorter peptide, amino acids 15-34 of the fibrin Bβ chain
% inhibition of 15-42FLAG-binding to VE-cadherin mean ± SD (VE-cadherin; blocking reagent 12 μM): 7 ± 1%
% inhibition of 15-42FLAG-binding to VE-cadherin mean ± SD (VE-cadherin; [5]): 67 ± 17%

peptide 15-37 (24mer): shorter peptide, amino acids 15-37 of the fibrin Bβ chain
% inhibition of 15-42FLAG-binding to VE-cadherin mean ± SD (VE-cadherin; blocking reagent 12 μM): 7 ± 2%
% inhibition of 15-42FLAG-binding to VE-cadherin mean ± SD (VE-cadherin; [5]): 17 ± 19%

peptide 16-42 (27mer): shorter peptide, amino acids 16-42 of the fibrin Bβ chain
% inhibition of 15-42FLAG-binding to VE-cadherin mean ± SD (VE-cadherin; blocking reagent 12 μM): 5 ± 2%
% inhibition of 15-42FLAG-binding to VE-cadherin mean ± SD (VE-cadherin; [5]): 55 ± 13%
